Reference: US7718688B2, “Nitrobenzindoles and their use in cancer therapy” (Auckland Uniservices Limited, priority 2004, dated 2010)

Legend:
[1] = test system: SKOV3: human ovarian carcinoma cell line; experiment: Proliferation IC50 assay, oxic/hypoxic, SKOV3; assay type: cell-based; settings: Table 3
[2] = One-electron reduction potential E(1) by pulse radiolysis; assay type: physicochemical; settings: determined by pulse radiolysis
[3] = Plasma pharmacokinetics after intravenous 36 in mice (LC/MS/MS); assay type: in vivo, CD-1 mice (nu/+ heterozygotes); settings: CD-1 (nu/+ heterozygotes), mouse
Procedure: The compounds were assayed in plasma, following precipitation of proteins with methanol, using an LC/MS/MS (triple quadrupole mass spectrometer).

[4] = test system: HT29: human colon cancer cell line; experiment: Proliferation IC50 assay, oxic/hypoxic, HT29; assay type: cell-based; settings: Table 3
HT29 clonogens = experiment: Clonogenic assay (C10), oxic/hypoxic, HT29; assay type: cell-based, human

In the case of `CN(C)CCOc1ccc2[nH]c(C(=O)N3CC(CCl)c4c3cc([N+](=O)[O-])c3cc(S(=O)(=O)NCCO)ccc43)cc2c1` (centres unmarked) [Compound 35, 1-(Chloromethyl)-3-{5-[2-(dimethylamino)ethoxy]indol-2-carbonyl}-N-(2-hydroxyethyl)-5-nitro-1,2-dihydro-3H-benzo[e]indole-7-sulfonamide], the IC50 ([1]; Homo sapiens, SK-OV-3, 4 h exposure under aerobic conditions) is reported as 9.2 µM, the “HCR (hypoxic cytotoxicity ratio) SKOV3” value ([1]; IC50(aerobic)/IC10(hypoxic)) is reported as 250 and the melting point is reported as 205 to 210 °C. The “E(1): one-electron reduction potential” value [2] was −392 ± 7 mV, the AUC ([3]; intravenous, 42.1 μmol/kg, 35 derived from 36, plasma, mice) was roughly 11.7 µM·h and the AUC ([3]; iv, 42.1 umol/kg, plasma, CD-1 mice, 36 i.v. 42.1 μmol/kg, 35 as metabolite of 36, mean) was 11.7 µM·h. The clearance ([3]; iv, 42.1 umol/kg, plasma, CD-1 mice, 36 i.v. 42.1 μmol/kg, 35 as metabolite of 36, mean, read-out: Cl (clearance)) was 61 mL/min/kg, the half-life ([3]; iv, 42.1 umol/kg, plasma, CD-1 mice, 36 i.v. 42.1 μmol/kg, 35 as metabolite of 36, mean, read-out: T1/2 (terminal half-life)) was 43 min and the Vd ([3]; iv, 42.1 umol/kg, plasma, CD-1 mice, 36 i.v. 42.1 μmol/kg, 35 as metabolite of 36, mean, read-out: Vd (volume of distribution based on the terminal phase)) was 3.8 L/kg. For the same compound, the IC50 ([4]; Homo sapiens, HT-29, 4 h exposure under aerobic conditions) was 5.5 µM, the “HCR (hypoxic cytotoxicity ratio) HT29” value ([4]; IC50(aerobic)/IC10(hypoxic)) was 90 and the “Clonogenic HCR HT29” value (HT29 clonogens; C10(aerobic)/C10(hypoxic)) was 74.4. For the same compound, the “Clonogenic C10 HT29 Oxic” value (HT29 clonogens; concentration to reduce HT29 clonogens to 10% of controls, 4 hr exposure under aerobic conditions) was 115 µM and the “AUC for 90% kill of HT29 cells under hypoxic conditions” value (HT29 clonogens; estimated from the clonogenic assay data in Table 3) was 371 µM·min.
